Results taken from publication PMC11239830, “Synthetic macrolides overcoming MLSBK-resistant pathogens” (Cell Discovery, 2024).
≈ marks a conversion by molar mass, not a printed value. Read-outs that look alike come from different tables or passages of the source.

Columns and labels:
S. aureus [1] = assay: MICs and MBCs against selected S. aureus isolates; assay type: cell-based, Staphylococcus aureus
WT S. aureus ribosomes = assay: PURE in vitro translation inhibition assay; assay type: biochemical, Staphylococcus aureus; conditions: mean ± SD
Description: (§1) To validate the in vitro activity of our compounds, we employed an in vitro reconstituted E. coli Protein synthesis Using a Recombinant Elements (PURE) translation system, substituting E. coli ribosomes with the purified S. aureus ribosomes.
(§2) 5 μL of PURE reaction mix that translates a gene encoding the Nanoluc luciferase was set up in the presence or absence of tested compounds. Protein synthesis was initiated by incubating reactions at 37 °C for 60 min and stopped by placing on ice for 5 min. Luciferase activity was quantified using the Nano-Glo luciferase assay system and read on a GloMax 20/20 luminometer (Promega, USA). For each compound, the in vitro translation inhibition assay was performed in three biological triplicates over a range of concentrations from 0.001 μM to 1000 μM. A compound-free control was used to normalize luminescence measurements. The calculated luminescence percentages were plotted against compound concentrations on a semilog scale using GraphPad Prism.

[2] = tested on: 15B196 S. aureus ribosomes (A2058-methylated); assay: PURE in vitro translation inhibition assay; assay type: biochemical, Staphylococcus aureus; conditions: mean ± SD
Description: as §1, §2

S. aureus [3] = assay: MIC, broth microdilution; assay type: cell-based, Staphylococcus aureus
Outline: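 Minimum inhibitory concentrations were measured by broth microdilution following CLSI guidelines. Plates were incubated at 37 °C for 16–20 h before results were read and recorded, and each determination was repeated at least three times.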

[4] = CCK-8 assay for cytotoxicity; assay type: cell-based, human; conditions: human, HEK293T cells, HEK293T cell viability
Description: HepG2 cells (6 × 10^3) and HEK293T cells (4 × 10^3) were seeded into 96-well plates in 90 μL of DMEM medium containing 10% FBS per well. […] After overnight incubation, the test compound stock solution was diluted with DMEM medium containing 10% FBS to every target concentration, and 10 μL of each was added to each well. Three parallel experiments were set up for each compound. After incubation for 48 h, 10 μL of cell counting kit-8 (CCK-8) reagent was added to each well in sequence according to the manufacturer’s instructions. […] This experiment was independently repeated three times. The data were processed by GraphPad Prism.

[5] = Staphylococcus aureus, MRSA, MRSA (13)
[6] = Staphylococcus aureus, i-MLSB S. aureus (10)

In the case of CC[C@H]1OC(=O)[C@H](C)[C@@H](OC(=O)NCCCCCCC#Cc2ccc3c(=O)c(C(=O)O)cn(C)c3c2)[C@H](C)[C@@H](O[C@@H]2O[C@H](C)C[C@H](N(C)C)[C@H]2O)[C@](C)(OC)C[C@@H](C)C(=O)[C@H](C)[C@H]2NC(=O)O[C@@]21C [MCX-219], the MBC (S. aureus [1]; Staphylococcus aureus, strain 3, MSSA, i-ermC, read-out: MBC) is reported as 2 µg/mL (≈ 2.07 µM), the “S. aureus isolates with bactericidal activity (MBC/MIC ≤ 4)” value (S. aureus [1]; selected S. aureus isolates) is reported as 58.3% and the MBC/MIC (S. aureus [1]; strain 1, MRSA, i-ermA) is reported as 4. The MBC (S. aureus [1]; strain 2, MSSA, i-ermC) was 2 µg/mL (≈ 2.07 µM), the MBC/MIC (S. aureus [1]; strain 2, MSSA, i-ermC) was 8 and the MBC/MIC (S. aureus [1]; strain 3, MSSA, i-ermC) was 8. The MBC/MIC (S. aureus [1]; strain 4, MRSA, i-ermA) was 4, the MBC/MIC (S. aureus [1]; strain 5, MRSA, i-ermC) was 2 and the MBC/MIC (S. aureus [1]; strain 6, MRSA, c-ermB) was 8. It also gave an MBC/MIC (S. aureus [1]; strain 7, MRSA, c-ermB) of over 8, an MBC/MIC (S. aureus [1]; strain 8, MSSA, c-ermB) of 4 and an MBC/MIC (S. aureus [1]; strain 9, MSSA, c-ermB) of 4. It also gave an MBC/MIC (S. aureus [1]; strain 10, MRSA, c-ermB) of 4, an MBC/MIC (S. aureus [1]; strain 11, MRSA, c-ermB) of over 8 and an IC50 (WT S. aureus ribosomes) of 720 ± 370 nM. It also gave an IC50 [2] of 570 ± 140 nM, an MIC (S. aureus [3]; S. aureus 15B196, Clinical, MRSA, c-ermB) of 1 µg/mL (≈ 1.03 µM) and an MIC (S. aureus [3]; S. aureus 21B200, Clinical, MRSA, c-ermB) of 4 µg/mL (≈ 4.14 µM). The MIC (S. aureus [3]; S. aureus 21B207, Clinical, MRSA, c-ermB) was 2 µg/mL (≈ 2.07 µM), the MIC (S. aureus [3]; S. aureus 21B212, Clinical, MSSA, i-ermC) was 0.25 µg/mL (≈ 0.258 µM) and the MIC (S. aureus [3]; S. aureus 21C173, Clinical, MSSA, i-ermC) was 0.25 µg/mL (≈ 0.258 µM). For the same compound, the MIC (S. aureus [3]; S. aureus 21C174, Clinical, MSSA, c-ermB) was 0.25 µg/mL (≈ 0.258 µM), the MIC (S. aureus [3]; S. aureus 21C187, Clinical, MRSA, i-ermA) was 0.12 µg/mL (≈ 0.124 µM) and the MIC (S. aureus [3]; S. aureus 21D112, Clinical, MSSA, c-ermB) was 16 µg/mL (≈ 16.5 µM). The MIC (S. aureus [3]; S. aureus 21D115, Clinical, MSSA, i-ermC) was 0.25 µg/mL (≈ 0.258 µM), the MIC (S. aureus [3]; S. aureus 21F198, Clinical, MRSA, c-ermB) was 1 µg/mL (≈ 1.03 µM) and the MIC (S. aureus [3]; S. aureus 21F206, Clinical, MSSA, c-ermB) was 8 µg/mL (≈ 8.27 µM). The MIC (S. aureus [3]; S. aureus 21F207, Clinical, MRSA, i-ermC) was 0.25 µg/mL (≈ 0.258 µM), the MIC (S. aureus [3]; S. aureus 21K194, Clinical, MSSA, i-ermC) was 0.06 µg/mL (≈ 0.062 µM) and the MIC (S. aureus [3]; S. aureus 21N354, Clinical, MRSA, c-ermB) was 1 µg/mL (≈ 1.03 µM). For the same compound, the MIC (S. aureus [3]; S. aureus 21P191, Clinical, MSSA, c-ermC) was 16 µg/mL (≈ 16.5 µM), the MIC (S. aureus [3]; S. aureus 21P404, Clinical, MSSA, i-ermC) was 0.25 µg/mL (≈ 0.258 µM) and the MIC (S. aureus [3]; S. aureus 21P407, Clinical, MRSA, c-ermB) was 8 µg/mL (≈ 8.27 µM). The MIC (S. aureus [3]; S. aureus 21Q253, Clinical, MRSA, c-ermB) was 1 µg/mL (≈ 1.03 µM), the MIC (S. aureus [3]; S. aureus 21R216, Clinical, MSSA, c-ermC) was 16 µg/mL (≈ 16.5 µM) and the MIC (S. aureus [3]; S. aureus 21T141, Clinical, MRSA, c-ermB) was 1 µg/mL (≈ 1.03 µM). For the same compound, the MIC (S. aureus [3]; S. aureus 21X388, Clinical, i-ermA (MRSA in Table S9, MSSA in Fig. 2a)) was 0.06 µg/mL (≈ 0.062 µM), the MIC (S. aureus [3]; S. aureus 21Y223, Clinical, MRSA, i-ermC) was 0.25 µg/mL (≈ 0.258 µM) and the MIC (S. aureus [3]; S. aureus ATCC29213) was 0.12 µg/mL (≈ 0.124 µM). For the same compound, the MIC (S. aureus [3]; S. aureus PU32, Clinical, MRSA, i-ermA) was 0.25 µg/mL (≈ 0.258 µM), the MIC50 (S. aureus [3]; [5]) was 1 µg/mL (≈ 1.03 µM) and the MIC90 (S. aureus [3]; [5]) was 4 µg/mL (≈ 4.14 µM). For the same compound, the MIC50 (S. aureus [3]; Staphylococcus aureus, MSSA, MSSA (10)) was 0.25 µg/mL (≈ 0.258 µM), the MIC (S. aureus [3]; Staphylococcus aureus, S. aureus 15B196, c-ermB, read-out: MIC) was 1 µg/mL (≈ 1.03 µM) and the MIC (S. aureus [3]; Staphylococcus aureus, S. aureus PU32, i-ermA, read-out: MIC) was 0.25 µg/mL (≈ 0.258 µM). For the same compound, the MIC50 (S. aureus [3]; Staphylococcus aureus, c-MLSB (constitutive) S. aureus (13)) was 2 µg/mL (≈ 2.07 µM), the MIC90 (S. aureus [3]; Staphylococcus aureus, c-MLSB S. aureus (13)) was 16 µg/mL (≈ 16.5 µM) and the MIC50 (S. aureus [3]; [6]) was 0.25 µg/mL (≈ 0.258 µM). It also gave an MIC90 (S. aureus [3]; [6]) of 0.25 µg/mL (≈ 0.258 µM), an MIC90 (S. aureus [3]; Staphylococcus aureus, MSSA (10)) of 16 µg/mL (≈ 16.5 µM) and a CC50 at 48 h [4] of 25700 ± 4080 nM.
